Measurements taken from patent US8304447B2, “2-acylaminopropoanol-type glucosylceramide synthase inhibitors” (Genzyme Corporation, priority 2007, dated 2012).

System: GM3
Experiment: GM3 Elisa assay
Assay type: cell-based
Settings: 48 h, Table 1; B16-FO cells, 2 days incubation; read-out: IC50_uM_Mean
Method in brief: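 Murine B16-FO melanoma cells attached 6 h on collagen, then exposed to compounds for 2 days at 37 °C. After formaldehyde fixation, cell-surface GM3 (NeuAc) was detected by anti-GM3 IgM and peroxidase anti-mouse IgM with Quantablu fluorescence (Ex 325/Em 420).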

Structure (SMILES) | IC50
COCCc1ccc(OCCC(=O)N[C@H](CN2CCCC2)[C@H](O)c2ccc3c(c2)OCCO3)cc1 [Compound 202, N-((1R, R)-1-(2,3-dihydrobenzo[β][1,4]dioxin-6-yl)-1-hydroxy-3-(pyrrolidin-1-yl)propan-2-yl)-3-(4-(2-methoxyethyl)phenoxy)propanamide (2R, R)-2,3-dihydroxysuccinate] | 100 to 1000 nM
Cc1nc(-c2ccc(NC(=O)N[C@H](CN3CCCC3)[C@H](O)c3ccc4c(c3)OCCO4)cc2)cs1 [Compound 133, 1-((1R,2R)-1-(2,3-dihydrobenzo[β][1,4]dioxin-6-yl)-1-hydroxy-3-(pyrrolidin-1-yl)propan-2-yl)-3-(4-(2-methylthiazol-4-yl)phenyl)urea] | 3000 to 10000 nM
O=C(Cc1ccc(-c2cccc(Cl)c2)cc1)N[C@@H](CN1CCCC1)[C@@H](O)c1ccc2c(c1)OCCO2 [Compound 65, 2-(3′-chlorobiphenyl-4-yl)-N-((1R,2R)-1-(2,3-dihydrobenzo[β][1,4]dioxin-6-yl)-1-hydroxy-3-(pyrrolidin-1-yl)propan-2-yl)acetamide] | ≤ 100 nM
O=C(N[C@H](CN1CCCC1)[C@H](O)c1ccc2c(c1)OCCO2)c1ccc(-c2ccccc2)cc1 [Compound 12, N-((1R,2R)-1-(2,3-dihydrobenzo[β][1,4]dioxin-6-yl)-1-hydroxy-3-(pyrrolidin-1-yl)propan-2-yl)biphenyl-4-carboxamide] | 100 to 1000 nM
O=C(CCOc1ccc(Cl)cc1)N[C@H](CN1CCCC1)[C@H](O)c1ccc2c(c1)OCCO2 [Compound 57, 3-(4-chlorophenoxy)-N-((1R,2R)-1-(2,3-dihydrobenzo[β][1,4]dioxin-6-yl)-1-hydroxy-3-(pyrrolidin-1-yl)propan-2-yl)propanamide] | ≤ 100 nM
Cc1ccccc1CC(=O)N[C@H](CN1CCCC1)[C@H](O)c1ccc2c(c1)OCCO2 [Compound 35, N-((1R,2R)-1-(2,3-dihydrobenzo [β][1,4]dioxin-6-yl)-1-hydroxy-3-(pyrrolidin-1-yl)propan-2-yl)-2-o-tolylacetamide] | 1000 to 3000 nM

Next, values leading:

IC50 | Structure (SMILES)
≤ 100 nM | COc1ccc(C(=O)CCCCCCC(=O)N[C@H](CN2CCCC2)[C@H](O)c2ccc3c(c2)OCCO3)cc1 [Compound 144, N-((1R,2R)-1-(2,3-dihydrobenzo[β][1,4]dioxin-6-yl)-1-hydroxy-3-(pyrrolidin-1-yl)propan-2-yl)-8-(4-methoxyphenyl)-8-oxooctanamide]
≤ 100 nM | COc1ccc(C(=O)CCCCC(=O)N[C@H](CN2CCCC2)[C@H](O)c2ccc3c(c2)OCCO3)cc1 [Compound 141, N-((1R,2R)-1-(2,3-dihydrobenzo[β][1,4]dioxin-6-yl)-1-hydroxy-3-(pyrrolidin-1-yl)propan-2-yl)-6-(4-methoxyphenyl)-6-oxohexanamide]

Same assay, conditions: 48 h, Table 2; B16-FO cells, 2 days incubation; read-out: IC50_uM_Mean

IC50 | Structure (SMILES)
100 to 1000 nM | CCCCCCCCCCCCCCCC(=O)N[C@H](CN1CCOCC1)[C@H](O)c1ccccc1 [Compound 317]
100 to 1000 nM | Cc1ccc(OCCC(=O)N[C@H](CN2CCCC2)[C@H](OC(=O)CCOc2ccc(C)cc2)c2ccc3c(c2)OCCO3)cc1 [Compound 252]
100 to 1000 nM | CCCCCCCC(=O)N[C@H](CN1CCC(F)C1)[C@H](O)c1ccc2c(c1)OCCO2 (stereo partly drawn) [Compound 322]
3000 to 10000 nM | CCCCCCCC(=O)N[C@H](CN1CCCC1CN1CCCC1)[C@H](O)c1ccc2c(c1)OCCO2 (stereo partly drawn) [Compound 316]
100 to 1000 nM | CCCCCCCC(=O)N[C@H](CN1CCCC1)[C@H](O)c1cc(OC)c2c(c1)OCCO2 [Compound 319]
100 to 1000 nM | COc1ccc([C@@H](OC(=O)Cc2ccc(C(F)(F)F)cc2)[C@@H](CN2CCCC2)NC(=O)Cc2ccc(C(F)(F)F)cc2)cc1 [Compound 250]
100 to 1000 nM | CCCCCCCCCCCCCCCC(=O)N[C@H](CN1CCCC1)[C@H](O)CCCCCCC [Compound 312]
100 to 1000 nM | COc1ccc([C@@H](O)[C@@H](CN2CCCC2)NC(=O)CCCCCC(C)(C)OC)cc1 [Compound 273]

Same assay, conditions: Table 3 (IC 50 Values); B16-FO cells; read-out: IC50_uM_Mean

Structure (SMILES) | IC50
CCCCCCCC(=O)N[C@H](Cn1ccnc1C)[C@H](O)c1ccc2c(c1)OCCO2 [Compound 571] | 3000 to 10000 nM
O=C(CCCCS(=O)(=O)C1CCCCC1)N[C@H](CN1CC[C@@H](F)C1)[C@H](O)c1ccc(OCc2ccccc2)cc1 [Compound 572] | 100 to 1000 nM
COc1ccc(OCCC(=O)N[C@H](CN2CCC(F)(F)CC2)[C@H](O)c2ccc3c(c2)OCCO3)cc1 [Compound 627] | 3000 to 10000 nM
COc1ccc(C(=O)CCCCCC(=O)N[C@H](CN2C3CCC2CC3)[C@H](O)c2ccc(OC(C)C)cc2)cc1 [Compound 377] | ≤ 100 nM
CCCCCCCCCCCCCCCC(=O)N[C@H](CNC(C)C)[C@H](O)c1ccc2c(c1)OCCO2 [Compound 680] | ≤ 100 nM
COc1ccc(S(=O)(=O)CCCCCC(=O)N[C@H](CN2CCCC2)[C@H](O)c2ccc3c(c2)OCCO3)cc1 [Compound 555] | 100 to 1000 nM
O=C(CCCCCC(=O)C1CC1)N[C@H](CN1CCCC1)[C@H](O)c1ccc2c(c1)OCCO2 [Compound 619] | 1000 to 3000 nM
COCC1CCCN1C[C@@H](NC(=O)CCOc1ccc(OC)cc1)[C@H](O)c1ccc2c(c1)OCCO2 (stereo partly drawn) [Compound 538] | 3000 to 10000 nM
COc1ccc(CCNC(=O)N[C@H](CN2CCCC2)[C@H](O)c2ccc3c(c2)OCCO3)cc1 [Compound 480] | 1000 to 3000 nM
Cc1ccc([C@@H](O)[C@@H](CN2CCCC2)NC(=O)Cc2ccc(OC(F)(F)F)cc2)cc1F [Compound 347] | 100 to 1000 nM
COc1ccc(OCCC(=O)N[C@H](CN2CCCCC2C)[C@H](O)c2ccc3c(c2)OCCO3)cc1 (stereo partly drawn) [Compound 606] | 3000 to 10000 nM
COc1ccc(OCCC(=O)N[C@H](CN2C3CCC2CC3)[C@H](O)c2ccc3c(c2)OCCO3)cc1 [Compound 523] | 100 to 1000 nM
COc1ccc([C@@H](O)[C@@H](CN2CCCC2)NC(=O)Cc2ccc(OC(F)(F)F)cc2)cc1C [Compound 389] | ≤ 100 nM
COc1ccc(C(=O)CCCCCC(=O)NCCN2CCCC2)cc1 [Compound 536] | 3000 to 10000 nM
O=C(N[C@H](CN1CCCC1)[C@H](O)c1ccc2c(c1)OCCO2)C1(C(F)(F)F)CCC1 [Compound 614] | 3000 to 10000 nM
CCCCCCCC(=O)N[C@H](CN1CC2CC2C1)[C@H](O)c1ccc2c(c1)OCCO2 (stereo partly drawn) [Compound 517] | 100 to 1000 nM
CCCCCCCCCCCCCCCC(=O)N[C@H](CNCc1ccco1)[C@H](O)c1ccc2c(c1)OCCO2 [Compound 679] | 3000 to 10000 nM
O=C(Cc1ccc(OC(F)(F)F)cc1)N[C@H](CN1CCCC1)[C@H](O)c1ccc(C(F)(F)F)cc1 [Compound 487] | 3000 to 10000 nM

Now from value to compound:

IC50 | Structure (SMILES)
≤ 100 nM | COCCOc1ccc(C(=O)CCCCC(=O)N[C@H](CN2CC[C@H](O)C2)[C@H](O)c2ccc(OC(C)C)cc2)cc1 [Compound 740]
3000 to 10000 nM | COc1ccc(C(=O)CCCC(=O)N[C@H](CN2CCCC2)[C@H](O)c2ccc(C(F)(F)F)cc2)cc1 [Compound 490]
100 to 1000 nM | COc1ccc(OCCC(=O)N[C@H](CN2CC[C@@H](F)C2)[C@H](O)c2ccc3c(c2)OCCO3)cc1 [Compound 509]
100 to 1000 nM | COc1ccc(C(=O)CCCCCC(=O)N[C@H](CN2CCC2)[C@H](O)c2ccc3c(c2)OCCO3)cc1 [Compound 603]
≤ 100 nM | COCCCCCCCC(=O)N[C@H](CN1CC[C@H](O)C1)[C@H](O)c1ccc(OCCCCF)cc1 [Compound 499]
≤ 100 nM | CCCCCCOc1ccc([C@@H](O)[C@@H](CN2CC[C@@H](F)C2)NC(=O)CCOc2ccc(Cl)cc2)cc1 [Compound 731]
100 to 1000 nM | COc1ccc(C(=O)CCCCC(=O)N[C@H](CN2CCCC2)[C@H](O)c2ccc(OC)c(C)c2)cc1 [Compound 387]
3000 to 10000 nM | COc1ccc(C(=O)CCCCCC(=O)N[C@H](CNCC(C)(C)C)[C@H](O)c2ccc3c(c2)OCCO3)cc1 [Compound 466]
3000 to 10000 nM | COc1ccc(C(=O)CCCCCC(=O)N[C@@H](Cc2ccccc2)CN2CCCC2)cc1 [Compound 541]
≤ 100 nM | COc1ccc(C(=O)CCCCC(=O)N[C@H](CN2CCCC2)[C@H](O)c2ccc(OCCOc3cccc(C(F)(F)F)c3)cc2)cc1 [Compound 365]
100 to 1000 nM | COc1ccc(C(=O)CCCCCC(=O)N[C@H](CN2CCCC2)[C@H](O)c2ccc3c(c2)OC(F)(F)O3)cc1 [Compound 409]
100 to 1000 nM | COc1ccc(C(=O)CCCCC(=O)N[C@H](CN2CC[C@H](O)C2)[C@H](O)c2ccc3c(c2)OCCO3)cc1 [Compound 655]
100 to 1000 nM | COc1ccc(C(=O)CCCCCC(=O)N[C@H](CN2CCCC2)[C@H](O)c2ccc(OC(F)(F)F)cc2)cc1 [Compound 666]
≤ 100 nM | COc1ccc(C(=O)CCCCCC(=O)N[C@H](CN2CCC[C@@H]2C)[C@@H](O)c2ccc3c(c2)OCCO3)cc1 [Compound 525]
≤ 100 nM | CCCCCCOc1ccc([C@@H](O)[C@@H](CN2CC[C@@H](F)C2)NC(=O)CCCOc2ccc(OC)cc2)cc1 [Compound 730]
3000 to 10000 nM | COc1ccc(OCCC(=O)N[C@H](CN2CC[C@@H](O)C2)[C@H](O)c2ccc3c(c2)OCCO3)cc1 [Compound 513]
1000 to 3000 nM | COCCOc1ccc([C@@H](O)[C@@H](CN2CCCC2)N(CCOC)C(=O)CCCCC(=O)c2ccc(OC)cc2)cc1 [Compound 423]
100 to 1000 nM | CCCCOc1ccc(C(O)[C@@H](CN2CC[C@@H](F)C2)NC(=O)CCCCCCCOC)cc1 (stereo partly drawn) [Compound 584]
100 to 1000 nM | CCC(C)NC[C@@H](NC(=O)CCCCCC(=O)c1ccc(OC)cc1)C(O)c1ccc2c(c1)OCCO2 (stereo partly drawn) [Compound 461]
100 to 1000 nM | COc1ccc(C(=O)CCCC(=O)N[C@H](CN2CCCC2)[C@H](O)c2ccc(C)c(F)c2)cc1 [Compound 346]
≤ 100 nM | COc1ccc(C(=O)CCCCC(=O)N[C@H](CN2CCCC2)[C@H](O)c2ccc(OCCCC(F)(F)F)cc2)cc1 [Compound 432]
≤ 100 nM | COc1ccc(C(=O)CCCCCC(=O)N[C@@H](CN(C)C(C)C)[C@@H](O)c2ccc3c(c2)OCCO3)cc1 [Compound 468]
≤ 100 nM | COc1ccc(C(=O)CCCCC(=O)N[C@H](CN2CCCC2)[C@H](O)c2ccc(OCCCOc3ccc(C)cc3)cc2)cc1 [Compound 430]
